In BigSolDB 2.1:

COc1ccc2c3c1O[C@H]1[C@@H](O)C=C[C@H]4[C@@H](C2)N(C)CC[C@@]341.O=P(O)(O)O
solubility (mole fraction)
Details | 293.2 K | 298.2 K | 303.2 K | 308.2 K | 313.2 K
in NMP | 0.00206 | 0.00212 | 0.00239 | 0.00249 | 0.00259
in isopropanol | 1.96e-05 | 2.52e-05 | 2.99e-05 | 3.6e-05 | 3.99e-05
